Laboratory results published in patent publication US20060069132A1, “Azolecarboxamide herbicides” (priority 2004, published 2006).

Key:
[1] = system: Italian ryegrass; test: Test C postemergence herbicide test; format: in vivo, Lolium multiflorum
Outline: (§1)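 Greenhouse test with a 12–14 day hold after application and visual comparison with controls. Emerged plants were 1- to 4-leaf stage (2–18 cm) when sprayed postemergence, and the paddy barnyardgrass was at 2 leaves under flooded conditions. 100 = complete control.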

[2] = system: green foxtail; test: Test C postemergence herbicide test; format: in vivo, Setaria viridis
Outline: as §1

[3] = system: downy bromegrass; test: Test C postemergence herbicide test; format: in vivo, Bromus tectorum
Outline: as §1

[4] = system: dallisgrass; test: Test E pre-/postemergence herbicide test; format: in vivo, Paspalum dilatatum; conditions: Preemergence
Outline: (§2)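 In this greenhouse assay, compounds in a solvent vehicle containing surfactant were applied pre- and postemergence, the latter to plants 2 to 18 cm high. Control was judged by eye after 12 to 14 days on a 0 to 100 scale.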

[5] = system: green foxtail; test: Test E pre-/postemergence herbicide test; format: in vivo, Setaria viridis; conditions: Preemergence
Outline: as §2

[6] = system: pitted morningglory; test: Test E pre-/postemergence herbicide test; format: in vivo, Ipomoea lacunosa; conditions: Preemergence
Outline: as §2

[7] = system: mustard; test: Test E pre-/postemergence herbicide test; format: in vivo, Brassica nigra; conditions: Preemergence
Outline: as §2

[8] = system: southern sandbur; test: Test E pre-/postemergence herbicide test; format: in vivo, Cenchrus echinatus; conditions: Preemergence
Outline: as §2

[9] = system: prickly sida; test: Test E pre-/postemergence herbicide test; format: in vivo, Sida spinosa; conditions: Preemergence
Outline: as §2

[10] = system: purple nutsedge; test: Test E pre-/postemergence herbicide test; format: in vivo, Cyperus rotundus; conditions: Preemergence, scale 0 (no effect) to 100 (complete control)
Outline: as §2

[11] = system: itchgrass; test: Test E pre-/postemergence herbicide test; format: in vivo, Rottboellia cochinchinensis; conditions: Preemergence
Outline: as §2

[12] = system: field bindweed; test: Test E pre-/postemergence herbicide test; format: in vivo, Convolvulus arvensis; conditions: Preemergence
Outline: as §2

[13] = system: common sowthistle; test: Test E pre-/postemergence herbicide test; format: in vivo, Sonchus oleraceous; conditions: Preemergence
Outline: as §2

[14] = Postemergence, 500 g ai/ha, scale 0 to 100
[15] = Postemergence, 250 g ai/ha, scale 0 to 100, 0 no effect, 100 complete control
[16] = postemergence, 125 g ai/ha, scale 0 to 100
[17] = postemergence, 62 g ai/ha, scale 0 to 100
[18] = 250 g ai/ha, scale 0 (no effect) to 100 (complete control)
[19] = 500 g ai/ha, scale 0 (no effect) to 100 (complete control)
[20] = postemergence, 31 g ai/ha, scale 0 to 100
[21] = Postemergence, 500 g ai/ha, scale 0 to 100, 0 no effect, 100 complete control

In the case of `CCn1nc(C(C)(C)C)cc1C(=O)Nc1cccc(OC(F)F)c1` [Compound 332], the “Ryegrass, Italian plant response rating” value [1, 14] is reported as 70, the “Plant response rating, Ryegrass, Italian” value [1, 15] is reported as 70 and the “Plant response rating, Ryegrass, Italian” value [1, 16] is reported as 60. For the same compound, the “Plant response rating, Ryegrass, Italian” value [1, 17] was 60, the “Foxtail, Green plant response rating” value [2, 14] was 70 and the “Plant response rating, Foxtail, Green” value [2, 15] was 50. The “Plant response rating, Foxtail, Green” value [2, 16] was 40, the “Plant response rating, Foxtail, Green” value [2, 17] was 35 and the “Bromegrass, Downy plant response rating” value [3, 14] was 65. The “Plant response rating, Bromegrass, Downy” value [3, 15] was 50, the “Plant response rating, Bromegrass, Downy” value [3, 16] was 40 and the “Plant response rating, Bromegrass, Downy” value [3, 17] was 35.

In the case of `Cc1nn(C(C)(C)C)nc1C(=O)Nc1cccc(C(=O)N2CC=CC2)c1` [Compound 393], the “Plant response rating, Dallisgrass” value ([4]; 62 g ai/ha, scale 0 to 100) is reported as 0, the “Plant response rating, Dallisgrass” value ([4]; 125 g ai/ha, scale 0 to 100) is reported as 10 and the “Plant response rating, Dallisgrass” value [4, 18] is reported as 75. The “Plant response rating, Dallisgrass” value [4, 19] was 85, the “Plant response rating, Foxtail, Green” value ([5]; 62 g ai/ha, scale 0 to 100) was 10 and the “Plant response rating, Foxtail, Green” value ([5]; 125 g ai/ha, scale 0 to 100) was 20. The “Plant response rating, Foxtail, Green” value [5, 18] was 70, the “Plant response rating, Foxtail, Green” value [5, 19] was 90 and the “Plant response rating, Morningglory” value ([6]; 62 g ai/ha, scale 0 to 100) was 0. For the same compound, the “Plant response rating, Morningglory” value ([6]; 125 g ai/ha, scale 0 to 100) was 60, the “Plant response rating, Morningglory” value [6, 18] was 95 and the “Plant response rating, Morningglory” value [6, 19] was 95. For the same compound, the “Plant response rating, Black Mustard” value ([7]; 62 g ai/ha, scale 0 to 100) was 10, the “Plant response rating, Black Mustard” value ([7]; 125 g ai/ha, scale 0 to 100) was 80 and the “Plant response rating, Black Mustard” value [7, 18] was 95. The “Plant response rating, Black Mustard” value [7, 19] was 95, the “Plant response rating, Sandbur” value ([8]; 62 g ai/ha, scale 0 to 100) was 0 and the “Plant response rating, Sandbur” value ([8]; 125 g ai/ha, scale 0 to 100) was 50. For the same compound, the “Plant response rating, Sandbur” value [8, 18] was 50, the “Plant response rating, Sandbur” value [8, 19] was 60 and the “Plant response rating, Ryegrass, Italian” value [1, 16] was 60. The “Plant response rating, Ryegrass, Italian” value [1, 17] was 55, the “Plant response rating, Foxtail, Green” value [2, 15] was 65 and the “Plant response rating, Foxtail, Green” value [2, 16] was 65. For the same compound, the “Plant response rating, Foxtail, Green” value [2, 17] was 60, the “Plant response rating, Prickly Sida” value ([9]; 62 g ai/ha, scale 0 to 100) was 30 and the “Plant response rating, Prickly Sida” value ([9]; 125 g ai/ha, scale 0 to 100) was 70. For the same compound, the “Plant response rating, Prickly Sida” value [9, 18] was 75, the “Plant response rating, Prickly Sida” value [9, 19] was 100 and the “Plant response rating, Nutsedge, Purple” value ([10]; 250 g ai/ha) was 20. The “Plant response rating, Nutsedge, Purple” value ([10]; 500 g ai/ha) was 100, the “Plant response rating, Itchgrass” value ([11]; 62 g ai/ha, scale 0 to 100) was 0 and the “Plant response rating, Itchgrass” value ([11]; 125 g ai/ha, scale 0 to 100) was 10. For the same compound, the “Plant response rating, Itchgrass” value [11, 18] was 30, the “Plant response rating, Itchgrass” value [11, 19] was 60 and the “Plant response rating, Bindweed, Field” value ([12]; 62 g ai/ha, scale 0 to 100) was 0. For the same compound, the “Plant response rating, Bindweed, Field” value ([12]; 125 g ai/ha, scale 0 to 100) was 20, the “Plant response rating, Bindweed, Field” value [12, 18] was 60 and the “Plant response rating, Bindweed, Field” value [12, 19] was 70. For the same compound, the “Plant response rating, Bromegrass, Downy” value [3, 15] was 55, the “Plant response rating, Bromegrass, Downy” value [3, 16] was 45 and the “Plant response rating, Bromegrass, Downy” value [3, 20] was 40. For the same compound, the “Plant response rating, Bromegrass, Downy” value [3, 17] was 40.

With `CCOC(=O)c1cccc(NC(=O)c2nn(C(C)(C)CC)nc2CC)c1` [Compound 375] the “Plant response rating, Ryegrass, Italian” value [1, 16] was 65, the “Plant response rating, Ryegrass, Italian” value [1, 17] was 65 and the “Plant response rating, Foxtail, Green” value [2, 15] was 65. The “Plant response rating, Foxtail, Green” value [2, 16] was 65, the “Plant response rating, Foxtail, Green” value [2, 17] was 50 and the “Plant response rating, Bromegrass, Downy” value [3, 15] was 60. The “Plant response rating, Bromegrass, Downy” value [3, 16] was 60, the “Plant response rating, Bromegrass, Downy” value [3, 20] was 40 and the “Plant response rating, Bromegrass, Downy” value [3, 17] was 60.

In the case of `CCNC(=O)c1cccc(NC(=O)c2nn(C(C)(C)C)nc2C)c1` [Compound 392], the “Plant response rating, Dallisgrass” value ([4]; 62 g ai/ha, scale 0 to 100) is reported as 10, the “Plant response rating, Dallisgrass” value ([4]; 125 g ai/ha, scale 0 to 100) is reported as 60 and the “Plant response rating, Dallisgrass” value [4, 18] is reported as 75. The “Plant response rating, Dallisgrass” value [4, 19] was 100, the “Plant response rating, Foxtail, Green” value ([5]; 62 g ai/ha, scale 0 to 100) was 10 and the “Plant response rating, Foxtail, Green” value [5, 18] was 70. The “Plant response rating, Foxtail, Green” value [5, 19] was 95, the “Plant response rating, Morningglory” value ([6]; 62 g ai/ha, scale 0 to 100) was 10 and the “Plant response rating, Morningglory” value ([6]; 125 g ai/ha, scale 0 to 100) was 40. For the same compound, the “Plant response rating, Morningglory” value [6, 18] was 40, the “Plant response rating, Morningglory” value [6, 19] was 75 and the “Plant response rating, Black Mustard” value ([7]; 62 g ai/ha, scale 0 to 100) was 60. The “Plant response rating, Black Mustard” value [7, 18] was 85, the “Plant response rating, Black Mustard” value [7, 19] was 100 and the “Plant response rating, Sowthistle” value ([13]; 62 g ai/ha, scale 0 to 100) was 20. The “Plant response rating, Sowthistle” value ([13]; 125 g ai/ha, scale 0 to 100) was 95, the “Plant response rating, Sowthistle” value [13, 18] was 95 and the “Plant response rating, Sowthistle” value [13, 19] was 95. For the same compound, the “Plant response rating, Sandbur” value ([8]; 62 g ai/ha, scale 0 to 100) was 0, the “Plant response rating, Sandbur” value ([8]; 125 g ai/ha, scale 0 to 100) was 10 and the “Plant response rating, Sandbur” value [8, 18] was 20. For the same compound, the “Plant response rating, Sandbur” value [8, 19] was 70, the “Plant response rating, Ryegrass, Italian” value [1, 21] was 65 and the “Plant response rating, Ryegrass, Italian” value [1, 16] was 50. The “Plant response rating, Ryegrass, Italian” value [1, 17] was 35, the “Plant response rating, Foxtail, Green” value [2, 15] was 65 and the “Plant response rating, Foxtail, Green” value [2, 21] was 70. For the same compound, the “Plant response rating, Foxtail, Green” value [2, 16] was 60, the “Plant response rating, Foxtail, Green” value [2, 17] was 60 and the “Plant response rating, Prickly Sida” value [9, 18] was 75. For the same compound, the “Plant response rating, Prickly Sida” value [9, 19] was 100, the “Plant response rating, Itchgrass” value ([11]; 62 g ai/ha, scale 0 to 100) was 50 and the “Plant response rating, Itchgrass” value ([11]; 125 g ai/ha, scale 0 to 100) was 85. The “Plant response rating, Itchgrass” value [11, 18] was 85, the “Plant response rating, Itchgrass” value [11, 19] was 90 and the “Plant response rating, Bindweed, Field” value ([12]; 62 g ai/ha, scale 0 to 100) was 30. For the same compound, the “Plant response rating, Bindweed, Field” value ([12]; 125 g ai/ha, scale 0 to 100) was 30, the “Plant response rating, Bindweed, Field” value [12, 18] was 100 and the “Plant response rating, Bindweed, Field” value [12, 19] was 100. For the same compound, the “Plant response rating, Bromegrass, Downy” value [3, 15] was 55, the “Plant response rating, Bromegrass, Downy” value [3, 21] was 60 and the “Plant response rating, Bromegrass, Downy” value [3, 16] was 55. The “Plant response rating, Bromegrass, Downy” value [3, 17] was 35.

In the case of `CCNC(=O)c1ccc(F)c(NC(=O)c2c3c(nn2CC)C(C)(C)CC3)c1` [Compound 353], the “Plant response rating, Ryegrass, Italian” value [1, 15] is reported as 15, the “Plant response rating, Ryegrass, Italian” value [1, 21] is reported as 20 and the “Plant response rating, Ryegrass, Italian” value [1, 16] is reported as 15. For the same compound, the “Plant response rating, Ryegrass, Italian” value [1, 17] was 10, the “Plant response rating, Foxtail, Green” value [2, 15] was 20 and the “Plant response rating, Foxtail, Green” value [2, 21] was 30. The “Plant response rating, Foxtail, Green” value [2, 16] was 20, the “Plant response rating, Foxtail, Green” value [2, 17] was 15 and the “Plant response rating, Bromegrass, Downy” value [3, 15] was 30. The “Plant response rating, Bromegrass, Downy” value [3, 21] was 35, the “Plant response rating, Bromegrass, Downy” value [3, 16] was 20 and the “Plant response rating, Bromegrass, Downy” value [3, 17] was 10.
